Data from patent publication US10597388B2, “Pyridazinone herbicides” (FMC CORPORATION, priority 2014, dated 2020).
Like-named read-outs stand apart in the source and are kept apart here.

How the values were obtained:
Assay type in all cases: in vivo
[1] = tested on: barnyardgrass (Echinochloa crus-galli); assay: Test A greenhouse herbicide test, pre- and postemergence; settings: for pest or weed control at 125 g/ha / pest or weed control at 500 g/ha / pest or weed control at 1000 g/ha: Echinochloa crus-galli, 240 h; for pest or weed control at 500 g/ha / pest or weed control at 1000 g/ha: 0 to 100 scale; for pest or weed control at 1000 g/ha: 1000 g ai/ha
Summary of the method: (§1)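 Seeds in loam–sand blend received a preemergence directed soil spray; plants at 2–10 cm, one- to two-leaf stage, received postemergence sprays. Compounds in a non-phytotoxic solvent with surfactant. After about 10 d in a greenhouse, injury rated visually versus untreated controls on a 0–100 scale (100 = complete control).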

corn (Zea mays) = assay: as above
Summary of the method: as §1

[2] = tested on: foxtail, giant (giant foxtail, Setaria faberii); assay: as above; settings: for pest or weed control at 125 g/ha / pest or weed control at 500 g/ha / pest or weed control at 1000 g/ha: Setaria faberi, 240 h; for pest or weed control at 500 g/ha / pest or weed control at 1000 g/ha: 0 to 100 scale; for pest or weed control at 1000 g/ha: 1000 g ai/ha
Summary of the method: as §1

[3] = tested on: barnyardgrass (Echinochloa crus-galli); assay: Test B flooded paddy test; settings: 250 g ai/ha, Flood, visual rating on scale of 0 to 100 where 0 is no effect and 100 is complete control, 13 to 15 d after treatment; for pest or weed control at 250 g/ha: Echinochloa crus-galli, 360 h, read-out: Plant response rating, Barnyardgrass
Summary of the method: (§2)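 Plants grown to the 2-leaf stage. At treatment, pots were flooded to 3 cm above the soil, compound was applied directly to the paddy water, and that depth was held throughout. After 13 to 15 d in the greenhouse, response was rated visually against controls on a 0 (no effect) to 100 (complete control) scale.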

[4] = tested on: ducksalad (Heteranthera limosa); assay: Test B flooded paddy test; settings: 250 g ai/ha, Flood, visual rating on scale of 0 to 100 where 0 is no effect and 100 is complete control, 13 to 15 d after treatment; for pest or weed control at 250 g/ha: Heteranthera limosa, 360 h, read-out: Plant response rating, Ducksalad
Summary of the method: as §2

rice (Oryza sativa) = assay: Test B flooded paddy test; settings: 250 g ai/ha, Flood, visual rating on scale of 0 to 100 where 0 is no effect and 100 is complete control, 13 to 15 d after treatment; for plant injury at 250 g/ha: Oryza sativa, 360 h, read-out: Plant response rating, Rice
Summary of the method: as §2

[5] = tested on: sedge, umbrella (small-flower umbrella sedge, Cyperus difformis); assay: Test B flooded paddy test; settings: 250 g ai/ha, Flood, visual rating on scale of 0 to 100 where 0 is no effect and 100 is complete control, 13 to 15 d after treatment; for pest or weed control at 250 g/ha: Cyperus difformis, 360 h, read-out: Plant response rating, Sedge, Umbrella
Summary of the method: as §2

[6] = tested on: chickweed (common chickweed, Stellaria media); assay: Test C greenhouse herbicide test, postemergence
Summary of the method: (§3)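 Postemergence foliar treatment, 1- to 4-leaf stage (2–18 cm), peat/vermiculite medium; greenhouse 13–15 d; visual rating vs controls, 0 = no effect, 100 = complete control; dash = no result.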

kochia (Kochia scoparia) [7] = assay: Test C greenhouse herbicide test, postemergence
Summary of the method: as §3

[8] = tested on: oat, wild (wild oat, Avena fatua); assay: Test C greenhouse herbicide test, postemergence
Summary of the method: as §3

kochia (Kochia scoparia) [9] = assay: Test A greenhouse herbicide test, pre- and postemergence
Summary of the method: as §1

[10] = tested on: ragweed (common ragweed, Ambrosia elatior); assay: as above
Summary of the method: as §1

[11] = Postemergence, 31 g ai/ha, 0 to 100 scale (0 no effect, 100 complete control)
[12] = Postemergence, 125 g ai/ha, scale 0 to 100, 0 is no effect, 100 is complete control
[13] = Postemergence, 250 g ai/ha, scale 0 to 100, 0 no effect, 100 complete control, 13 to 15 d
[14] = postemergence, 62 g ai/ha, scale 0 to 100, 0 no effect, 100 complete control
[15] = Postemergence, 125 g ai/ha, 0 to 100 scale where 0 is no effect and 100 is complete control
[16] = Postemergence, 500 g ai/ha, visual rating after approx. 10 d, 0 to 100 scale (0 no effect, 100 complete control)
[17] = Preemergence, 125 g ai/ha, 0 to 100 scale where 0 is no effect and 100 is complete control
[18] = Preemergence, 500 g ai/ha, 0 to 100 scale where 0 is no effect and 100 is complete control
[19] = Postemergence, 31 g ai/ha, scale 0 to 100 (0 no effect, 100 complete control)
[20] = Postemergence, 62 g ai/ha, 0 to 100 scale (0 no effect, 100 complete control)
[21] = postemergence, 125 g ai/ha, scale 0 to 100, 0 no effect, 100 complete control

SMILES: Cc1cc(C)c2sc(C)c(-c3c(O)c(C)nn(C)c3=O)c2c1 [Compound 2, 5-hydroxy-2,6-dimethyl-4-(2,5,7-trimethylbenzo[b]thien-3-yl)-3(2H)-pyridazinone]
- pest or weed control at 125 g/ha ([1]; post-emergence, Postemergence, 125 g ai/ha, visual rating after approx. 10 d, 0 to 100 scale (0 no effect, 100 complete control), read-out: Plant response rating, Barnyardgrass): 30%
- pest or weed control at 500 g/ha ([1]; post-emergence, Postemergence, 500 g ai/ha, 0 is no effect, 100 is complete control, read-out: Barnyardgrass plant response rating): 80%
- pest or weed control at 125 g/ha ([1]; pre-emergence, Preemergence, 125 g ai/ha, 0 to 100 scale where 0 is no effect and 100 is complete control, read-out: Barnyardgrass plant response rating): 50%
- pest or weed control at 500 g/ha ([1]; pre-emergence, Preemergence, 500 g ai/ha, 0 no effect, 100 complete control, read-out: Plant response rating, Barnyardgrass): 80%
- Corn plant response rating (crop injury, 0 = no effect, 100 = complete kill) at 125 g/ha (corn (Zea mays); Zea mays, post-emergence, 240 h, Postemergence, 125 g ai/ha, visual rating after approx. 10 d, 0 to 100 scale (0 no effect, 100 complete control)): 0%
- plant injury at 500 g/ha (corn (Zea mays); Zea mays, post-emergence, 240 h, Postemergence, 500 g ai/ha, 0 to 100 scale, 0 is no effect, 100 is complete control, read-out: Corn plant response rating): 20%
- plant injury at 125 g/ha (corn (Zea mays); Zea mays, pre-emergence, 240 h, Preemergence, 125 g ai/ha, 0 to 100 scale where 0 is no effect and 100 is complete control, read-out: Corn plant response rating): 0%
- Corn plant response rating (crop injury, 0 = no effect, 100 = complete kill) at 500 g/ha (corn (Zea mays); Zea mays, pre-emergence, 240 h, Preemergence, 500 g ai/ha, 0 to 100 scale, 0 no effect, 100 complete control): 10%
- pest or weed control at 125 g/ha ([2]; post-emergence, Postemergence, 125 g ai/ha, visual rating after approx. 10 d, 0 to 100 scale (0 no effect, 100 complete control), read-out: Plant response rating, Foxtail, Giant): 80%
- pest or weed control at 500 g/ha ([2]; post-emergence, Postemergence, 500 g ai/ha, 0 is no effect, 100 is complete control, read-out: Foxtail, Giant plant response rating): 90%
- pest or weed control at 125 g/ha ([2]; pre-emergence, Preemergence, 125 g ai/ha, 0 to 100 scale where 0 is no effect and 100 is complete control, read-out: Foxtail, Giant plant response rating): 100%
- pest or weed control at 500 g/ha ([2]; pre-emergence, Preemergence, 500 g ai/ha, 0 no effect, 100 complete control, read-out: Plant response rating, Foxtail, Giant): 100%
- pest or weed control at 250 g/ha [3]: 30%
- pest or weed control at 250 g/ha [4]: 80%
- plant injury at 250 g/ha (rice (Oryza sativa)): 35%
- pest or weed control at 250 g/ha [5]: 85%
- Chickweed plant response rating [6, 11]: 95
- Plant response rating, Chickweed [6, 12]: 95
- Plant response rating, Chickweed [6, 13]: 98
- Chickweed plant response rating [6, 14]: 95
- Kochia plant response rating (kochia (Kochia scoparia) [7]; [11]): 50
- Plant response rating, Kochia (kochia (Kochia scoparia) [7]; [12]): 65
- Plant response rating, Kochia (kochia (Kochia scoparia) [7]; [13]): 75
- Kochia plant response rating (kochia (Kochia scoparia) [7]; [14]): 55
- Oat, Wild plant response rating [8, 11]: 75
- Plant response rating, Oat, Wild [8, 12]: 90
- Plant response rating, Oat, Wild [8, 13]: 85
- Oat, Wild plant response rating [8, 14]: 80

SMILES: CCc1oc2ccc(C)cc2c1-c1c(O)c(C)nn(C)c1=O [Compound 10, 4-(2-ethyl-5-methyl-3-benzofuranyl)-5-hydroxy-2,6-dimethyl-3(2H)-pyridazinone]
- pest or weed control at 1000 g/ha ([1]; post-emergence, Postemergence, 0 is no effect, 100 is complete control, read-out: Barnyardgrass plant response rating): 90%
- pest or weed control at 1000 g/ha ([1]; pre-emergence, Preemergence, 0 no effect, 100 complete control, read-out: Plant response rating, Barnyardgrass): 100%
- plant injury at 1000 g/ha (corn (Zea mays); Zea mays, post-emergence, 240 h, Postemergence, 1000 g ai/ha, 0 to 100 scale, 0 is no effect, 100 is complete control, read-out: Corn plant response rating): 20%
- Corn plant response rating (crop injury, 0 = no effect, 100 = complete kill) at 1000 g/ha (corn (Zea mays); Zea mays, pre-emergence, 240 h, Preemergence, 1000 g ai/ha, 0 to 100 scale, 0 no effect, 100 complete control): 10%
- pest or weed control at 1000 g/ha ([2]; post-emergence, Postemergence, 0 is no effect, 100 is complete control, read-out: Foxtail, Giant plant response rating): 80%
- pest or weed control at 1000 g/ha ([2]; pre-emergence, Preemergence, 0 no effect, 100 complete control, read-out: Plant response rating, Foxtail, Giant): 100%
- pest or weed control at 250 g/ha [3]: 0%
- pest or weed control at 250 g/ha [4]: 30%
- plant injury at 250 g/ha (rice (Oryza sativa)): 0%
- pest or weed control at 250 g/ha [5]: 0%
- Chickweed plant response rating [6, 11]: 90
- Plant response rating, Chickweed [6, 12]: 90
- Plant response rating, Chickweed [6, 13]: 90
- Chickweed plant response rating [6, 14]: 90
- Kochia plant response rating (kochia (Kochia scoparia) [7]; [11]): 60
- Plant response rating, Kochia (kochia (Kochia scoparia) [7]; [12]): 95
- Plant response rating, Kochia (kochia (Kochia scoparia) [7]; [13]): 95
- Kochia plant response rating (kochia (Kochia scoparia) [7]; [14]): 85
- Oat, Wild plant response rating [8, 11]: 5
- Plant response rating, Oat, Wild [8, 12]: 5
- Plant response rating, Oat, Wild [8, 13]: 25
- Oat, Wild plant response rating [8, 14]: 5

SMILES: COC(=O)Oc1c(C)nn(C)c(=O)c1-c1ccc(Br)c2ccccc12 [Compound 145]
- Plant response rating, Barnyardgrass [1, 15]: 20
- Plant response rating, Barnyardgrass [1, 16]: 90
- Barnyardgrass plant response rating [1, 17]: 20
- Plant response rating, Barnyardgrass [1, 18]: 90
- Plant response rating, Corn (corn (Zea mays); [15]): 20
- Plant response rating, Corn (corn (Zea mays); [16]): 60
- Plant response rating, Foxtail, Giant [2, 15]: 20
- Plant response rating, Foxtail, Giant [2, 16]: 80
- Foxtail, Giant plant response rating [2, 17]: 30
- Plant response rating, Foxtail, Giant [2, 18]: 90
- Plant response rating, Kochia (kochia (Kochia scoparia) [9]; [15]): 100
- Plant response rating, Kochia (kochia (Kochia scoparia) [9]; [16]): 100
- Kochia plant response rating (kochia (Kochia scoparia) [9]; [17]): 90
- Plant response rating, Kochia (kochia (Kochia scoparia) [9]; [18]): 100
- Plant response rating, Ragweed [10, 15]: 100
- Plant response rating, Ragweed [10, 16]: 100
- Plant response rating, Ragweed [10, 18]: 100
- Plant response rating, Barnyardgrass [3]: 0
- Plant response rating, Ducksalad [4]: 0
- Plant response rating, Rice (rice (Oryza sativa)): 0
- Plant response rating, Sedge, Umbrella [5]: 0
- Plant response rating, Kochia (kochia (Kochia scoparia) [7]; [19]): 95
- Kochia plant response rating (kochia (Kochia scoparia) [7]; [20]): 98
- Plant response rating, Kochia (kochia (Kochia scoparia) [7]; [13]): 100
- Kochia plant response rating (kochia (Kochia scoparia) [7]; [21]): 100
- Plant response rating, Oat, Wild [8, 19]: 95
- Oat, Wild plant response rating [8, 20]: 95
- Plant response rating, Oat, Wild [8, 13]: 100
- Oat, Wild plant response rating [8, 21]: 95
